What all share (format): biochemical, Human
The subject of experiment [1] is C5-convertase. Put plainly: Complement convertase bound to biomaterial surface: cleavage of BOC-Leu-Gly-Arg-pNA, OD 405 nm. Particulars: washed PDMS after incubation in def PPP; 60 hours; FIG. 3a. The protocol: Human blood was collected from a healthy volunteer by vena puncture. […] Then blood was centrifuged (1100 xg) to obtain separation between plasma and blood cells. In our experiments we used this citrated human plasma after treatment with reptilase to coagulate fibrinogen. This plasma, deficient of fibrinogen (def PPP), contains the other coagulation components and can be mixed with Ca^++ containing buffer to optimize complement activation. This def PPP was stored in aliquots at -80° C. We diluted this in 50 mM TRIS buffer+33 mM CaCl2 (pH 7.4) to a percentage of 20% prior to use. The biomaterial PDMS (polydimethyl-siloxane, silicon rubber) was cut into 1 cm^2 pieces. For cleaning the biomaterial it was incubated at first in 70% ethanol, and then rinsed in 0.9% NaCl. During the experiment the pieces of biomaterials were incubated in 500 μl diluted def PPP during 0, 10, 30, or 60 min at room temperature. After incubation, the biomaterials were rinsed 3 times with saline. Then the biomaterials were incubated in BOC-Leu-Gly-Arg-pNA, diluted in TRIS buffer +33 mM CaCl2, during 60 hours at room temperature in the dark. Simultaneously, also 100 μl def PPP, in which the biomaterials had been incubated, were mixed with 100 μl of H-Leu-Gly-Arg-pNA or Bz-Leu-Gly-Arg-pNA, diluted in TRIS buffer, supplemented with 33 mM CaCl2.

Experiment [2] relates to C5-convertase. Put plainly: Complement convertase released in incubated def PPP: cleavage of H- or Bz-Leu-Gly-Arg-pNA, OD 405 nm. Particulars: for substrate cleavage in the incubated plasma solution: def PPP after incubation with PDMS, 60 hours, FIG. 3a; for specificity of the substrate for complement activation: judged from the effect of EDTA and enzyme inhibitors on cleavage, FIG. 6. The text has this:
Human blood was collected from a healthy volunteer by vena puncture. Blood was mixed immediately with sodium citrate (0.316%, final concentration) to prevent clotting. Then blood was centrifuged (1100 xg) to obtain separation between plasma and blood cells. In our experiments we used this citrated human plasma after treatment with reptilase to coagulate fibrinogen. This plasma, deficient of fibrinogen (def PPP), contains the other coagulation components and can be mixed with Ca^++ containing buffer to optimize complement activation. This def PPP was stored in aliquots at -80° C. We diluted this in 50 mM TRIS buffer+33 mM CaCl2 (pH 7.4) to a percentage of 20% prior to use. The biomaterial PDMS (polydimethyl-siloxane, silicon rubber) was cut into 1 cm^2 pieces. For cleaning the biomaterial it was incubated at first in 70% ethanol, and then rinsed in 0.9% NaCl. During the experiment the pieces of biomaterials were incubated in 500 μl diluted def PPP during 0, 10, 30, or 60 min at room temperature. After incubation, the biomaterials were rinsed 3 times with saline. Then the biomaterials were incubated in BOC-Leu-Gly-Arg-pNA, diluted in TRIS buffer +33 mM CaCl2, during 60 hours at room temperature in the dark. Simultaneously, also 100 μl def PPP, in which the biomaterials had been incubated, were mixed with 100 μl of H-Leu-Gly-Arg-pNA or Bz-Leu-Gly-Arg-pNA, diluted in TRIS buffer, supplemented with 33 mM CaCl2. After these 60 hours the OD was measured at 405 nm in a spectrophotometer (microplate reader 3550 UV; Biorad, Richmond, Calif., USA).
In a second experiment the incubated def PPP was incubated in the presence of Ca^++ as described above and 100 μl def PPP was collected after 30 minutes. Then this collected def PPP was incubated with H-Leu-Gly-Arg-pNA and Bz-Leu-Gly-Arg-pNA in the presence of Ca^++ or in the absence of Ca^++ with EDTA.

Experiment [3] has as its system complement convertase. Put plainly: Effect of enzyme inhibitors or EDTA present during incubation of PDMS in def PPP on convertase formation. Particulars: for inhibition of substrate conversion by inhibitor added prior to incubation: PDMS in def PPP aliquots, substrate H-Leu-Gly-Arg-pNA, FIG. 6. The protocol: To verify the specificity of complement convertase activity, PDMS was incubated with diluted def PPP supplemented with Ca^++ (allowing convertases to be formed) or with EDTA (preventing convertase formation).
A number of enzyme inhibitors was used to further specify the complement convertase test of the incubated def PPP with substrate H-Leu-Gly-Arg-pNA.During incubation with PDMS in different aliquots a specific thrombin inhibitor (I2581, Kabi), C1 esterase inhibitor (Sigma), the plasmin/kallikrein/chymotrypsin inhibitor aprotinin (Bayer) and EDTA was used.

The record followed here is patent US6087120A, “Measurement of complement activation by biomaterials by means of complement convertase cleavage of peptide substrates” (HaemoProbe B.V., priority 1996, dated 2000).

“Also recorded” adds a separate entry of the source. Peptide text beside a SMILES is read from it. * marks the point of attachment. pNA = O=[N+]([O-])c1ccc(N*)cc1; Boc = CC(C)(C)OC(=O)*; Bz = O=C(c1ccccc1)*

As to `CC(C)C[C@H](NC(=O)OC(C)(C)C)C(=O)NCC(=O)N[C@@H](CCCNC(=N)N)C(=O)Nc1ccc([N+](=O)[O-])cc1` [BOC-Leu-Gly-Arg-pNA] (Boc-Leu-Gly-Arg-pNA), the “substrate cleavage on the PDMS surface” value in experiment [1] is given as “most effective on the PDMS surface; also recorded: colour formation”. With `CC(C)C[C@H](NC(=O)c1ccccc1)C(=O)NCC(=O)N[C@@H](CCCNC(=N)N)C(=O)Nc1ccc([N+](=O)[O-])cc1` [Bz-Leu-Gly-Arg-pNA] (Bz-Leu-Gly-Arg-pNA), the “substrate cleavage in the incubated plasma solution” value in experiment [2] is “effective in the plasma solution; also recorded: colour formation”. In addition, the “specificity of the substrate for complement activation” value in experiment [2] (FIG. 4a) is “not reduced by EDTA; also recorded: considered non-specific”.

For `O=C(O)CN(CCN(CC(=O)O)CC(=O)O)CC(=O)O` [EDTA, ethylenediamine tetra-acetic acid, reference compound], the “effect of EDTA during substrate cleavage (second incubation) on formed convertases” value in experiment [2] (def PPP collected after 30 min with PDMS, EDTA added with the substrate, FIG. 4a) was “did not prevent substrate cleavage by formed complexes; also recorded: formed convertases remained active in EDTA”. Besides, in experiment [3], the “inhibition of substrate conversion by inhibitor added prior to incubation” value is reported as “almost completely prevented substrate conversion; also recorded: best inhibitor”. The “convertase formation with EDTA instead of Ca++ during incubation” value in experiment [3] (PDMS in diluted def PPP supplemented with Ca++ or EDTA) was “completely prevented convertase formation”. Consider `CC(C)C[C@H](N)C(=O)NCC(=O)N[C@@H](CCCNC(=N)N)C(=O)Nc1ccc([N+](=O)[O-])cc1` [H-Leu-Gly-Arg-pNA] (H-Leu-Gly-Arg-pNA), for which the “substrate cleavage in the incubated plasma solution” value in experiment [2] is listed as “effective in the plasma solution; also recorded: colour formation”. In addition, the “specificity of the substrate for complement activation” value in experiment [2] (FIG. 4a) is “complement dependent”. With aprotinin, in experiment [3], the “inhibition of substrate conversion by inhibitor added prior to incubation” value is reported as “did not inhibit substrate conversion; also recorded: then aprotinin”.
